The results in this text go back to patent publication US20160368870A1, “OLEFIN SUBSTITUTED OXINDOLES HAVING AMPK ACTIVITY” (BOEHRINGER INGELHEIM INTERNATIONAL GMBH, priority 2013, published 2016).

One data set deals with T1, AMPK beta 1 (Homo sapiens, UniProt Q13131+Q9Y478).
T1 construct: in-cell-ELISA for phospho-ACC (Acetyl-CoA carboxylase 1) in HepG2 cells (liver); endogenous in cells; host or cells: HepG2
The data set is described as follows: in-cell-ELISA for phospho-ACC, Activity beta 1. The format is cell-based. The note with it: 2 h, serum free DMEM, percentage activation over vehicle control, cell line not given (HepG2 or C2C12 myotubes). On the procedure: (§1) Activation of AMPK by various compounds were measured using in-cell-ELISA for phospho-ACC (Acetyl-CoA carboxylase 1) in HepG2 cells (liver) and fully differentiated myotubes (C2C12 cells) grown in 96 well plate. Cells were treated with 1 μM of the molecule for 2 h in serum free DMEM media. After methanol fixation, cells were blocked with BSA followed by addition of anti-phospho ACC antibody (Cell Signaling) and HRP conjugated secondary antibody. Absorbance values taken at 450 nm and were normalized with total DNA (Hoechest stain). Results were expressed as percentage activation over vehicle control.
(ELISA stands for enzyme-linked immunosorbent assay.)

A further data set deals with T2, AMPK beta 2 (Mus musculus, UniProt Q6PAM0+Q8BRK8).
T2 construct: fully differentiated myotubes (C2C12 cells) grown in 96 well plate; endogenous in cells; host or cells: C2C12 myotubes
T2 sequence (Q6PAM0 whole entry): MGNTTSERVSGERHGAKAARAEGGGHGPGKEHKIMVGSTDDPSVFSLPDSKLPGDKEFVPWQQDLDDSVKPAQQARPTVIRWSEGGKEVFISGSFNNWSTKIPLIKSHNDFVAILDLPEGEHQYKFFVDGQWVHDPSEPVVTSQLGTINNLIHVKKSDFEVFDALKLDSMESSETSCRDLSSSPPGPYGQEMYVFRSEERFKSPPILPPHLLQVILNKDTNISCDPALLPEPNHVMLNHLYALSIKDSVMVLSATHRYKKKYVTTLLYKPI
T2 sequence (Q8BRK8 whole entry): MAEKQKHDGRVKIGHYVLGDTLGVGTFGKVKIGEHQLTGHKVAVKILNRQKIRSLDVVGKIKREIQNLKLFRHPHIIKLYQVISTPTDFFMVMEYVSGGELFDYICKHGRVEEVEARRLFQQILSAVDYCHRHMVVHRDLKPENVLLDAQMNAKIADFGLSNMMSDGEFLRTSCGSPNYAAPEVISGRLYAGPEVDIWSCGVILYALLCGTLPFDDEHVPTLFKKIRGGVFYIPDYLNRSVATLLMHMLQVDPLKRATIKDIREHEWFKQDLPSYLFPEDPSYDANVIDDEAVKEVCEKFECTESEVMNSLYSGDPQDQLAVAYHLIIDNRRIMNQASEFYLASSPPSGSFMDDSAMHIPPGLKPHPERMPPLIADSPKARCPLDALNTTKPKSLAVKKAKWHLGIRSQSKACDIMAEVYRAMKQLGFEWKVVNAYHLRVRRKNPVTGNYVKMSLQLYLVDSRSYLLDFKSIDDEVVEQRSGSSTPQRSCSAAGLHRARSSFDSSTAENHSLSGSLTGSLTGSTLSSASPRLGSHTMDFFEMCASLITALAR
T2 sequence (O54950 whole entry partner): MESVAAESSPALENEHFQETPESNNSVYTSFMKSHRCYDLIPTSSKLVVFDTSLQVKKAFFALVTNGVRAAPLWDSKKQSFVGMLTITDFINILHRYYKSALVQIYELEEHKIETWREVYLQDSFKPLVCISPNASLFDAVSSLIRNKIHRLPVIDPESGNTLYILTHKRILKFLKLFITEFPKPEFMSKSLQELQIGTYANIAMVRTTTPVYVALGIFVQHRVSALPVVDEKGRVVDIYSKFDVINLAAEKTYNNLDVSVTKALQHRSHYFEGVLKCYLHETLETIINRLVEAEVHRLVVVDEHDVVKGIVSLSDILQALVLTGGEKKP
Put plainly: in-cell-ELISA for phospho-ACC, Activity beta 2. The class given is cell-based. As to conditions: 2 h, serum free DMEM, percentage activation over vehicle control, cell line not given (HepG2 or C2C12 myotubes). On the procedure:
as §1

Data set [1] can be described thus: solubility of sodium salt in water. The format is physicochemical. The note with it: read-out: soluble in water. The method, then:
To a stirred solution of acid (compound 67, 1 mmol) in EtOH (25v) was added 0.5M NaOH solution (1 mmol) drop-wise at 30° C. followed by 10V of water. After 30 minutes, excess of ethanol was removed under reduced pressure at 35 deg C. and repeatedly distilled with ethanol two or three times until free solid obtained. The solid was further washed with n-Hexane to obtain compound 67 Compound 67 is soluble in 1 mg/mL water.
The protocol for synthesizing compound 67 was followed to prepare compound 68. Compound 68 is also soluble in 1 mg/mL water.

T1 sequence (Q9Y478 whole entry): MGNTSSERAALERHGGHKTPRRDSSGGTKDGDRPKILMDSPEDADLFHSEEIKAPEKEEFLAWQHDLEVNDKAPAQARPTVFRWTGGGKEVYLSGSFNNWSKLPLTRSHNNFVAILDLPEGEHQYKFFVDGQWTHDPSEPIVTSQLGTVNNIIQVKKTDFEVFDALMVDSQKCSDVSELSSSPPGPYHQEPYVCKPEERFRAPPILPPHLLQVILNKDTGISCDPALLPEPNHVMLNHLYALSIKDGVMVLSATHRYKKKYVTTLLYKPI
T1 sequence (Q13131 whole entry): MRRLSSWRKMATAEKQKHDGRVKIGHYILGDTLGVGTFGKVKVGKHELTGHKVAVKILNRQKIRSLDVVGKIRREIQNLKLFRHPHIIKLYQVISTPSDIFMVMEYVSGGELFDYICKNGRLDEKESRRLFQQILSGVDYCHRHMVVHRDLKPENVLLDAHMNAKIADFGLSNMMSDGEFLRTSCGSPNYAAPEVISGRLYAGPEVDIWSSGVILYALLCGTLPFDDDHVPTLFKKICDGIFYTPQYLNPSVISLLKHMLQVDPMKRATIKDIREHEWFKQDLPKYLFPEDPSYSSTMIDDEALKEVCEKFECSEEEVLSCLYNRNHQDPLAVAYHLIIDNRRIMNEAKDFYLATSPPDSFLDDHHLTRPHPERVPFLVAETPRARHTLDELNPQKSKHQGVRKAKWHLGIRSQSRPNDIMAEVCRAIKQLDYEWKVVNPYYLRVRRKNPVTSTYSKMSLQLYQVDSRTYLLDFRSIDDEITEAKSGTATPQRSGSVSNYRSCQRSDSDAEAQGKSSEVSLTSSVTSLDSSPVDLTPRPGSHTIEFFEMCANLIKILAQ
T1 sequence (P54619 whole entry partner): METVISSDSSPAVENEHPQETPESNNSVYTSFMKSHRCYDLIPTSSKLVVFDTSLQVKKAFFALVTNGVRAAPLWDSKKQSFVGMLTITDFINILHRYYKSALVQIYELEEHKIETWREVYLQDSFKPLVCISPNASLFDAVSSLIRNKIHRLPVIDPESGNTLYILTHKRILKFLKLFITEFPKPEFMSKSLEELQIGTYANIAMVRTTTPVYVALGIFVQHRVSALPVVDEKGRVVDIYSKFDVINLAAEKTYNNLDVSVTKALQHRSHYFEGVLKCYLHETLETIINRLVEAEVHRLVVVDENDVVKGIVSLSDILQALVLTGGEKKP

Consider `O=C(O)Cc1ccc(C=C2C(=O)Nc3cc(Cl)c(-c4ccc(-c5ccc(-n6cncn6)cc5)cc4)cc32)cc1` [Example 53], for which the activation at 1 µM on AMPK beta 1 is greater than 40%. In addition, at AMPK beta 2, the “Activity beta 2 (at 1 uM)” value was “*** (*** >40)”.
In turn, `COc1ccc(C=C2C(=O)Nc3cc(Cl)c(-c4ccc(-c5ccc(-n6ccnn6)cc5)cc4)cc32)cc1CC(=O)O` [Example 56] had an activation at 1 µM at AMPK beta 1 greater than 40%. The “Activity beta 2 (at 1 uM)” value at AMPK beta 2 was “*** (*** >40)”.
At AMPK beta 1, `O=C(O)Cc1ccc(/C=C2\C(=O)Nc3cc(Cl)c(-c4ccc(-c5ccc(-n6cncn6)cc5)cc4)cc32)cc1` [Example 68, sodium {4-[(E/Z)-{6-chloro-2-oxo-5-[4′-(1H-1,2,4-triazol-1-yl)biphenyl-4-yl]-1,2-dihydro-3H-indol-3-ylidene}methyl]phenyl}acetate] returned an activation at 1 µM greater than 40%. In addition, in data set [1], the solubility is no less than 1000 µg/mL.
For the compound `Cc1ccc(C=C2C(=O)Nc3cc(Cl)c(-c4ccc(-c5ccc(S(C)(=O)=O)cc5)cc4)cc32)cc1CC(=O)O` [Example 48], the activation at 1 µM at AMPK beta 1 was greater than 40%. For the same compound, the “Activity beta 2 (at 1 uM)” value at AMPK beta 2 is listed as “*** (*** >40)”.
In turn, `COc1ccc(C=C2C(=O)Nc3cc(Cl)c(-c4ccc(-c5ccc(-n6cncn6)cc5)cc4)cc32)cc1CC(=O)O` [Example 51] registered an activation at 1 µM at AMPK beta 1 greater than 40%. Moreover, the “Activity beta 2 (at 1 uM)” value on AMPK beta 2 is given as “*** (*** >40)”.
`COc1ccc(C=C2C(=O)Nc3cc(Cl)c(-c4ccc(-c5ccccc5O)cc4)cc32)cc1CC(=O)O` [Example 11] gave an activation at 1 µM on AMPK beta 1 greater than 40%. In addition, the “Activity beta 2 (at 1 uM)” value at AMPK beta 2 is recorded as “*** (*** >40)”.
On AMPK beta 1, `COc1ccc(/C=C2\C(=O)Nc3cc(Cl)c(-c4ccc(-c5ccc(-n6cncn6)cc5)cc4)cc32)cc1CC(=O)[O-].[Na+]` [Example 67, sodium {5-[(E/Z)-{6-chloro-2-oxo-5-[4′-(1H-1,2,4-triazol-1-yl)biphenyl-4-yl]-1,2-dihydro-3H-indol-3-ylidene}methyl]-2-methoxyphenyl}acetate] came in with an activation at 1 µM greater than 40%. Also, in data set [1], the solubility was no less than 1000 µg/mL.
On to `Cn1cc(C=C2C(=O)Nc3cc(Cl)c(-c4ccc(-c5ccccc5O)cc4)cc32)cc1C(=O)O` [Example 13], for which, at AMPK beta 1, the activation at 1 µM is greater than 40%. In addition, the “Activity beta 2 (at 1 uM)” value on AMPK beta 2 is “*** (*** >40)”.
